Test: Human HepG2 cell viability assay in 384 well format
Assay type: toxicity, cell-based
Design: dose 125 nL, time 70.5 hour; concentration not given beside the values
Details: HepG2 cells, read-out: Inhibition

SMILES | cytotoxicity at 70.5 h
Cc1nc(CC(=O)N2CCCN(c3ccc(C#N)cc3)CC2)cs1 | -8.68%
Cc1noc(C(C)C)c1C(=O)NS(=O)(=O)c1ccc(Cl)cc1 | -3.31%
CN(C(=O)Cc1ccc(NC(=O)NC2CCC2)cc1)c1ccccc1 | 38.2%
CC(C)(O)CN1CCN(C(=O)c2cc3ccccc3c(=O)[nH]2)CC1 | -3.18%
CCc1nccn1C1CCCN(C(=O)c2cn3c(C)cccc3n2)C1 (configuration not stated) | -3.89%
O=C(Cc1ccc2c(c1)CCO2)N1CCCCC1Cn1cccn1 (configuration not stated) | -2.84%
COCCN(C)C(=O)Nc1ccc2c(ccn2CCOC)c1 | 32.1%
CCCn1ccc2ccc(NC(=O)N(C)CCOC)cc21 | -1.44%
CC(=O)NC(C)c1ccc(OCC2CC2)c(F)c1 (configuration not stated) | -6.57%
COCC(=O)N(C)Cc1ccc(Cl)c(Cl)c1 | -12.6%
COCCn1ccc(NC(=O)Nc2cccnc2)n1 | -2.62%
COc1ccc(CC(=O)N2CCCCC2Cn2cccn2)cc1OC (configuration not stated) | -2.2%
CN(Cc1nccn1CC(F)(F)F)C(=O)c1cccc(C#N)c1 | -7.89%
Cc1noc(C(C)C)c1C(=O)NS(=O)(=O)c1ccc2c(c1)OCCCO2 | -9.35%
Cc1noc(Cl)c1CCC(=O)N1CCCCC1Cn1cccn1 (configuration not stated) | 1.4%
Cc1cnn(C2CCCN(C(=O)c3cc(C)sc3C)C2)c1 (configuration not stated) | -2.62%
Cc1cc(C)n(CCCNC(=O)C(C)NC(=O)c2ccccc2Cl)n1 (configuration not stated) | -8.83%
CN(Cc1cnn(C)c1)C(=O)Cn1c(CS(C)(=O)=O)nc2ccccc21 | -12.9%
CCc1noc(C(C)N2CCN(c3ccc(C#N)cn3)CC2)n1 (configuration not stated) | -2.7%
Cc1nc(C2(NCC(=O)NCCc3cccs3)CCCC2)no1 | -9.55%
Cc1cc(C)n(CC(C)CNC(=O)[C@@H](C)NC(=O)OC(C)(C)C)n1 (some centres not stated) | -27.5%

SMILES | cytotoxicity at 70.5 h
COc1ccc(CCN2CCN(C(=O)c3scnc3C)CC2)cc1 | -5.8%
O=C(NCCCNC(=O)c1cccc(O)c1)Nc1ccc(F)cc1F | -2.92%
CCOCCCC(=O)NCCC(=O)N1CCN(c2ccccn2)CC1 | -13.4%
Cc1noc(C(C)N2CCN(CCC(=O)N3CCCCC3)CC2)n1 (configuration not stated) | -8.82%
CCc1nc(CC(=O)NCC(Cc2ccc(F)cc2)C(N)=O)cs1 (configuration not stated) | 29.6%
Cc1cc(C)n(CCCNC(=O)[C@@H](C)NC(=O)OC(C)(C)C)n1 | -14.4%
CC(C)Cc1cc(C(=O)NCCc2ccc(S(C)(=O)=O)cc2)[nH]n1 | -7.03%
CC(C)(C)c1n[nH]c(C2CN(C(=O)c3csnn3)CCO2)n1 (configuration not stated) | 22.6%
CC(c1nc(C(C)(C)C)no1)N1CCN(CC(=O)N2CCOCC2)CC1 (configuration not stated) | -16.5%
CCOCCCNC(=O)c1ccccc1S(C)(=O)=O | -15.5%
CCOC(CC)C(=O)NCCC(=O)N1CCN(c2ccccn2)CC1 (configuration not stated) | -14.2%
COCCOCC(=O)Nc1ccc(Br)cc1F | -11%
O=C(NCCc1nnc2n1CCC2)NCC1(c2cccc(F)c2)CC1 | -29.8%
Cc1noc(C(C)C)c1C(=O)N1CCOCC1CC(=O)c1ccco1 (configuration not stated) | -5.66%
CCc1cnc(CN(C(C)=O)C2CCN(CCS(C)(=O)=O)C2)o1 (configuration not stated) | 32.1%
CCN(CC)C(=O)c1ccc(-c2ccsc2)nc1C | -6.78%
O=C(CN1CCCC1Cn1cncn1)Nc1cccnc1 (configuration not stated) | -7.61%
CCOc1ncccc1NC(=O)c1sccc1C | -7.66%
Cc1cc(C(=O)N2CCCC2c2nnc3n2CCCCC3)no1 (configuration not stated) | -7.37%
CNC(=O)COc1ccc(CNCc2ccc(F)cc2F)cc1 | -3.23%
CC1CCN(CCNC(=O)c2cncnc2C(C)C)CC1 | -5.55%

SMILES | cytotoxicity at 70.5 h
Cc1ccc(CNC(=O)Nc2cc(C(F)(F)F)c[nH]c2=O)cn1 | -0.26%
Cc1csc(CNC(=O)Nc2cc(C(F)(F)F)c[nH]c2=O)n1 | -5.01%
CCCN1CCC(NC(=O)c2ccc(F)cc2I)CC1 | -6.74%
Cc1nn(C)c(N2CCOCC2)c1CNC(C)c1ccco1 (configuration not stated) | 10.7%
O=C(Nc1cccc(CN2CCOC2=O)c1)N1CCOCC1 | -3.32%
Cc1nc(-c2ccsc2)ccc1C(=O)O | -4.19%
Cc1cnn(CC(C)NCc2nc(-c3ccco3)no2)c1 (configuration not stated) | 2.25%
Cc1nc(C)n(CC2CCCCN2CC(=O)Nc2cccnc2)n1 (configuration not stated) | -0.493%
O=C1CCCCN1Cc1cccc(NC(=O)N2CCSCC2)c1 | -6.83%
CC(C)(C(=O)NCC(N)=O)c1ccccc1F | -5.2%
COc1ccc(CNCCc2cc(F)cc3c2OCOC3)cc1O | 2.79%
Cc1nc(C)n(CC2CN(CC(=O)Nc3nccs3)CCO2)n1 (configuration not stated) | -3.11%
CCOc1ncccc1NC(=O)c1cc(C)c(C)s1 | -7.38%
COC(=O)CS(=O)(=O)CCC(=O)N1CCCC1c1ccsc1 (configuration not stated) | -2.16%
c1ccc(C2CCCN2Cc2nnnn2C2CC2)cc1 (configuration not stated) | -2.74%
CCc1ncncc1C(=O)NCCN1CCC(C)CC1 | -4.63%
Cc1noc(C)c1CN1CCC2(CC1)NC(=O)CC2c1ccncc1 (configuration not stated) | -9.41%
Cn1cc(-c2nnn3c2COC(CNCC2CCOCC2)C3)cn1 (configuration not stated) | -7.48%
O=C(c1ccncc1)N1CCN2C[C@H](Oc3cccnc3)C[C@H]2C1 | 2.63%
CC(C)NC(=O)c1ccc2nnc(C3CCN(S(C)(=O)=O)C3)n2c1 (configuration not stated) | -0.738%
Cc1occc1C(=O)N1CCN2C[C@H](Oc3cccnc3)C[C@H]2C1 | 0.855%

SMILES | cytotoxicity at 70.5 h
Cn1nc(CN2CCCCC2)c2c1CN(C(=O)c1ccoc1)C2 | 16.5%
NC(=O)COc1ccc(CNCc2ccc(F)c(F)c2)cc1 | 0.155%
Fc1cccnc1N1CCOCC2(CCCN(c3nncs3)C2)C1 (configuration not stated) | -9.83%
COCC1CN(Cc2ccoc2)Cc2nnn(C)c21 (configuration not stated) | -13.7%
O=C(NC[C@]12COC[C@H]1CN(Cc1cccs1)C2)c1ccsc1 | -9.66%
CN(C)C[C@]12COC[C@H]1CN(C(=O)CCc1ccccc1)C2 | -11.8%
Cc1ccc(C(=O)N2CCC3(CC2)CCN(Cc2ccccn2)C3=O)o1 | 26.4%
NC(=O)N1CCC2(CCN(Cc3ccccn3)C2=O)C1 (configuration not stated) | -0.213%
Cc1ccc(C(=O)N2CCc3c(CN4CCCC4)nn(C)c3C2)cc1C | -2.24%
c1coc(CN2CCCn3c(nnc3Cn3cccn3)C2)c1 | 3.11%
Cc1ccc(C(=O)N2Cc3c(CN4CCCCC4)nn(C)c3C2)cc1F | 36.2%
O=C(Nc1cccnc1)[C@H]1C[C@H]2OCC[C@H]2N(Cc2ccc(F)cc2)C1 | -10%
Cc1cccc(CN2C[C@@H]3COC[C@]3(CNC(=O)c3ccccc3)C2)n1 | -12.2%
Cc1cccc(CN2C[C@@H]3COC[C@]3(CNC(=O)c3cccn3C)C2)n1 | 19.6%
Cn1cc(CN2CCC3(CC2)NC(=O)CC3c2ccncc2)cn1 (configuration not stated) | 12.2%
Cc1cncc(C(=O)N2C[C@H]3CCC[C@@]3(COc3ccccn3)C2)c1 | 7.93%
COc1cc(N2CCO[C@H]3[C@@H](Oc4cccnc4)CC[C@@H]32)ncn1 | 26.1%
c1cnn(Cc2nnc3n2CCCN(Cc2ccsc2)C3)c1 | 4.58%
Cc1ccc(O[C@@H]2C[C@H]3CN(C(=O)c4cccnc4)CCN3C2)cc1 | 9.15%

Source: ChEMBL document CHEMBL3507680, “University of Dundee, Gates Library screen for HepG2 cell viability”
